Test results reported in US8377974B2 (Millennium Pharmaceuticals, Inc., priority 2004, dated 2013).

target: T1, human plasma protein factor Xa (Homo sapiens, UniProt P00742); assay: Factor Xa IC50 determination: cleavage of paranitroanilide substrate S-2765 in 96-well plates; format: biochemical; details: fXa 1 nM, S-2765 100 μM, Tris buffered saline pH 7.4, room temperature
T1 construct: measure proteolytic activity of the enzyme (factor Xa); purchased Haematologic Technologies (Essex Junction, Vt.); host or cells: human plasma
T1 sequence (P00742 235-488 limits assumed): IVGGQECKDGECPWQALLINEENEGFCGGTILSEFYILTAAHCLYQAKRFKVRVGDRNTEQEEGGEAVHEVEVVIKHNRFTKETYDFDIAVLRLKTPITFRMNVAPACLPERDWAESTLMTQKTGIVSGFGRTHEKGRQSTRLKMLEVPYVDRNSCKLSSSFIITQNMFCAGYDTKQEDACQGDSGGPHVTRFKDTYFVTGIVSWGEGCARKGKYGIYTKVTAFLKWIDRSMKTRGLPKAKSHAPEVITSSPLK
T1 sequence (P00742 41-179 partner limits assumed): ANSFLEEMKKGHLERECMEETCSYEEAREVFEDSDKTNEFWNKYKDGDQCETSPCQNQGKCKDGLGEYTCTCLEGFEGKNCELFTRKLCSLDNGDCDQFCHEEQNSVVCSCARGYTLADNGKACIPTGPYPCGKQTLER
Procedure, shortened: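 Human plasma factor Xa (1 nM) preincubated 5 min at room temperature with inhibitor (0.01 nM–10 μM final) in Tris-buffered saline pH 7.4 with 5 mM CaCl2, 0.1% BSA, 5% DMSO. S-2765 at 100 μM final; hydrolysis at 405 nm over 2 min. IC50 from 4-parameter fit of initial velocities.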

| IC50 | Structure (SMILES) |
| --- | --- |
| 100 to 500 nM | COc1ccccc1-c1ccc(C2=NOC(CNC(=O)c3ccc(Cl)s3)C2)cc1 (centres unmarked) [Example 188, 5-Chloro-thiophene-2-carboxylic acid [3-(2′-methoxy-biphenyl-4-yl)-4,5-dihydro-isoxazol-5-ylmethyl]-amide] |
| 100 to 500 nM | COCc1ccccc1-c1ccc(-c2cc(CNC(=O)c3ccc(Cl)s3)on2)cc1 [Example 189, 5-Chloro-thiophene-2-carboxylic acid [3-(2′-methoxymethyl-biphenyl-4-yl)-isoxazol-5-ylmethyl]-amide] |
| 100 to 500 nM | O=C(NCC1CC(c2ccc(-c3cccnc3)cc2)=NO1)c1ccc(Cl)s1 (centres unmarked) [Example 190, 5-Chloro-thiophene-2-carboxylic acid [3-(4-pyridin-3-yl-phenyl)-4,5-dihydro-isoxazol-5-ylmethyl]-amide] |
| ≥ 500 nM | O=C(NCC1CC(c2ccc(-c3ccncc3)cc2)=NO1)c1ccc(Cl)s1 (centres unmarked) [Example 191, 5-Chloro-thiophene-2-carboxylic acid [3-(4-pyridin-4-yl-phenyl)-4,5-dihydro-isoxazol-5-ylmethyl]-amide] |
| ≥ 500 nM | O=C(NCc1cc(-c2ccc(-c3cccnc3)cc2)no1)c1ccc(Cl)s1 [Example 192, 5-Chloro-thiophene-2-carboxylic acid [3-(4-pyridin-3-yl-phenyl)-isoxazol-5-ylmethyl]-amide] |
| ≤ 100 nM | O=C(NCc1cc(-c2ccc(-c3ccncc3)cc2)no1)c1ccc(Cl)s1 [Example 193, 5-Chloro-thiophene-2-carboxylic acid [3-(4-pyridin-4-yl-phenyl)-isoxazol-5-ylmethyl]-amide] |
| ≤ 100 nM | CN(C)Cc1ccccc1-c1ccc(C2=NOC(CNC(=O)c3ccc(Cl)s3)C2)cc1 (centres unmarked) [Example 194, 5-Chloro-thiophene-2-carboxylic acid [3-(2′-dimethylaminomethyl-biphenyl-4-yl)-4,5-dihydro-isoxazol-5-ylmethyl]-amide] |
| ≤ 100 nM | O=C(NCC1CC(c2ccc(-c3ccccc3CN3CCCC3)cc2)=NO1)c1ccc(Cl)s1 (centres unmarked) [Example 195, 5-Chloro-thiophene-2-carboxylic acid [3-(2′-pyrrolidin-1-ylmethyl-biphenyl-4-yl)-4,5-dihydro-isoxazol-5-ylmethyl]-amide] |
| ≤ 100 nM | O=C(NCC1CC(c2ccc(-c3ccccc3CN3CCCCC3)cc2)=NO1)c1ccc(Cl)s1 (centres unmarked) [Example 196, 5-Chloro-thiophene-2-carboxylic acid [3-(2′-piperidin-1-ylmethyl-biphenyl-4-yl)-4,5-dihydro-isoxazol-5-ylmethyl]-amide] |
| ≤ 100 nM | O=C(NCC1CC(c2ccc(-c3ccccc3CN3CCOCC3)cc2)=NO1)c1ccc(Cl)s1 (centres unmarked) [Example 197, 5-Chloro-thiophene-2-carboxylic acid [3-(2′-morpholin-4-ylmethyl-biphenyl-4-yl)-4,5-dihydro-isoxazol-5-ylmethyl]-amide] |
| ≤ 100 nM | COCCN(C)Cc1ccccc1-c1ccc(C2=NOC(CNC(=O)c3ccc(Cl)s3)C2)cc1 (centres unmarked) [Example 198, 5-Chloro-thiophene-2-carboxylic acid [3-(2′-{[(2-methoxy-ethyl)-methyl-amino]-methyl}-biphenyl-4-yl) 4,5-dihydro-isoxazol-5-ylmethyl]-amide] |
| ≤ 100 nM | CN1CCN(Cc2ccccc2-c2ccc(C3=NOC(CNC(=O)c4ccc(Cl)s4)C3)cc2)CC1 (centres unmarked) [Example 199, 5-Chloro-thiophene-2-carboxylic acid {3-[2′-(4-methyl-piperazin-1-ylmethyl)-biphenyl-4-yl]-4,5-dihydro-isoxazol-5-ylmethyl}-amide] |
| ≤ 100 nM | CN(C)CCN(C)Cc1ccccc1-c1ccc(C2=NOC(CNC(=O)c3ccc(Cl)s3)C2)cc1 (centres unmarked) [Example 200, 5-Chloro-thiophene-2-carboxylic acid [3-(2′-{[(2-dimethylamino-ethyl)-methyl-amino]-methyl}-biphenyl-4-yl)-4,5-dihydro-isoxazol-5-ylmethyl]-amide] |
| ≥ 500 nM | O=C(NCC1CC(c2ccc(-c3ccccc3CN3CCCCCC3)cc2)=NO1)c1ccc(Cl)s1 (centres unmarked) [Example 201, 5-Chloro-thiophene-2-carboxylic acid [3-(2′-azepan-1-ylmethyl-biphenyl-4-yl)-4,5-dihydro-isoxazol-5-ylmethyl]-amide] |
| ≥ 500 nM | COc1ccc(CN(C)C)c(-c2ccc(C3=NOC(CNC(=O)c4ccc(Cl)s4)C3)cc2)c1 (centres unmarked) [Example 202, 5-Chloro-thiophene-2-carboxylic acid [3-(2′-dimethylaminomethyl-5′-methoxy-biphenyl-4-yl)-4,5-dihydro-isoxazol-5-ylmethyl]-amide] |
| ≤ 100 nM | COc1ccc(CN2CCCC2)c(-c2ccc(C3=NOC(CNC(=O)c4ccc(Cl)s4)C3)cc2)c1 (centres unmarked) [Example 203, 5-Chloro-thiophene-2-carboxylic acid [3-(5′-methoxy-2′-pyrrolidin-1-ylmethyl-biphenyl-4-yl)-4,5-dihydro-isoxazol-5-ylmethyl]-amide] |

| IC50 | Structure (SMILES) |
| --- | --- |
| ≤ 100 nM | CN(C)Cc1ccc(Cl)cc1-c1ccc(C2=NOC(CNC(=O)c3ccc(Cl)s3)C2)cc1 (centres unmarked) [Example 204, 5-Chloro-thiophene-2-carboxylic acid [3-(5′-chloro-2′-dimethylaminomethyl-biphenyl-4-yl)-4,5-dihydro-isoxazol-5-ylmethyl]-amide] |
| ≤ 100 nM | O=C(NCC1CC(c2ccc(-c3cc(Cl)ccc3CN3CCCC3)cc2)=NO1)c1ccc(Cl)s1 (centres unmarked) [Example 205, 5-Chloro-thiophene-2-carboxylic acid [3-(5′-chloro-2′-pyrrolidin-1-ylmethyl-biphenyl-4-yl)-4,5-dihydro-isoxazol-5-ylmethyl]-amide] |
| 100 to 500 nM | COCCN(C)Cc1ccc(Cl)cc1-c1ccc(C2=NOC(CNC(=O)c3ccc(Cl)s3)C2)cc1 (centres unmarked) [Example 206, 5-Chloro-thiophene-2-carboxylic acid [3-(5′-chloro-2′-{[(2-methoxy-ethyl)-methyl-amino]-methyl}-biphenyl-4-yl)-4,5-dihydro-isoxazol-5-ylmethyl]-amide] |
| ≥ 500 nM | COc1ccc(-c2ccc(C3=NOC(CNC(=O)c4ccc(Cl)s4)C3)cc2)c(CO)c1 (centres unmarked) [Example 207, 5-Chloro-thiophene-2-carboxylic acid [3-(2′-hydroxymethyl-4′-methoxy-biphenyl-4-yl)-4,5-dihydro-isoxazol-5-ylmethyl]-amide] |
| ≤ 100 nM | O=Cc1ccccc1-c1ccc(-c2cc(CNC(=O)c3ccc(Cl)s3)on2)cc1 [Example 208, 5-Chloro-thiophene-2-carboxylic acid [3-(2′-formyl-biphenyl-4-yl)-isoxazol-5-ylmethyl]-amide] |
| ≤ 100 nM | CN(C)Cc1ccccc1-c1ccc(-c2cc(CNC(=O)c3ccc(Cl)s3)on2)cc1 [Example 209, 5-Chloro-thiophene-2-carboxylic acid [3-(2′-dimethylaminomethyl-biphenyl-4-yl)-isoxazol-5-ylmethyl]-amide] |
| 100 to 500 nM | O=C(NCc1cc(-c2ccc(-c3ccccc3CN3CCCC3)cc2)no1)c1ccc(Cl)s1 [Example 210, 5-Chloro-thiophene-2-carboxylic acid [3-(2′-pyrrolidin-1-ylmethyl-biphenyl-4-yl)-isoxazol-5-ylmethyl]-amide] |
| 100 to 500 nM | CN(C)Cc1cccc(-c2ccc(-c3cc(CNC(=O)c4ccc(Cl)s4)on3)cc2)c1 [Example 211, 5-Chloro-thiophene-2-carboxylic acid [3-(3′-dimethylaminomethyl-biphenyl-4-yl)-isoxazol-5-ylmethyl]-amide] |
| ≥ 500 nM | O=C(NCc1cc(-c2ccc(-c3cccc(CN4CCCC4)c3)cc2)no1)c1ccc(Cl)s1 [Example 212, 5-Chloro-thiophene-2-carboxylic acid [3-(3′-pyrrolidin-1-ylmethyl-biphenyl-4-yl)-isoxazol-5-ylmethyl]-amide] |
| ≥ 500 nM | CN(C)Cc1ccc(-c2ccc(-c3cc(CNC(=O)c4ccc(Cl)s4)on3)cc2)cc1 [Example 213, 5-Chloro-thiophene-2-carboxylic acid [3-(4′-dimethylaminomethyl-biphenyl-4-yl)-isoxazol-5-ylmethyl]-amide] |
| ≥ 500 nM | O=C(NCc1cc(-c2ccc(-c3ccc(CN4CCCC4)cc3)cc2)no1)c1ccc(Cl)s1 [Example 214, 5-Chloro-thiophene-2-carboxylic acid [3-(4′-pyrrolidin-1-ylmethyl-biphenyl-4-yl)-isoxazol-5-ylmethyl]-amide] |
| ≥ 500 nM | COc1ccc(CN(C)C)c(-c2ccc(-c3cc(CNC(=O)c4ccc(Cl)s4)on3)cc2)c1 [Example 215, 5-Chloro-thiophene-2-carboxylic acid [3-(2′-dimethylaminomethyl-5′-methoxy-biphenyl-4-yl)-isoxazol-5-ylmethyl]-amide] |
| ≤ 100 nM | COc1ccc(CN2CCCC2)c(-c2ccc(-c3cc(CNC(=O)c4ccc(Cl)s4)on3)cc2)c1 [Example 216, 5-Chloro-thiophene-2-carboxylic acid [3-(5′-methoxy-2′-pyrrolidin-1-ylmethyl-biphenyl-4-yl)-isoxazol-5-ylmethyl]-amide] |
| ≤ 100 nM | COc1ccc(-c2ccc(-c3cc(CNC(=O)c4ccc(Cl)s4)on3)cc2)c(CN(C)C)c1 [Example 217, 5-Chloro-thiophene-2-carboxylic acid [3-(2′-dimethylaminomethyl-4′-methoxy-biphenyl-4-yl)-isoxazol-5-ylmethyl]-amide] |
| ≤ 100 nM | COc1ccc(-c2ccc(-c3cc(CNC(=O)c4ccc(Cl)s4)on3)cc2)c(CN2CCCC2)c1 [Example 218, 5-Chloro-thiophene-2-carboxylic acid [3-(4′-methoxy-2′-pyrrolidin-1-ylmethyl-biphenyl-4-yl)-isoxazol-5-ylmethyl]-amide] |
| ≤ 100 nM | O=C(NCC1CC(c2ccc(-c3ccccn3)cc2)=NO1)c1ccc(Cl)s1 (centres unmarked) [Example 219, 5-Chloro-thiophene-2-carboxylic acid [3-(4-pyridin-2-yl-phenyl)-4,5-dihydro-isoxazol-5-ylmethyl]-amide] |
